Earlier results as cited in patent US5854247A, “Piperazine, piperidine and tetrahydropyridine derivatives useful as 5-HT1 recepter agonists” (Merck Sharp & Dohme Ltd., priority 1994, dated 1998).

Conditions: humans, therapeutic doses

With CNS(=O)(=O)Cc1ccc2[nH]cc(CCN(C)C)c2c1 [sumatriptan] as the compound, how does the adverse cardiovascular events read?
The adverse cardiovascular events was “certain adverse cardiovascular events”.
